In data set [1] the test system is HT29 tumor. Kind of data set: Doxorubicin accumulation in tumor tissues after intravenous administration, near-infrared fluorescence. How it is done:
In this example, the in vivo anticancer effects of doxorubicin (Free DOX) and FRRG-DOX (SEQ ID NO: 7) of Example 1 were investigated. First, 1×10^7 HT-29 cells were directly injected into the right flank of each tumor animal model constructed in 1) (n=4 per group). When the tumor size reached ˜250-300 mm3, doxorubicin (Free DOX, 5 mg/kg) and FRRG DOX (SEQ ID NO: 7) of Example 1 (5 mg/kg) were administered intravenously once every three days for 15 days.
(§1) The therapeutic efficacies of Free DOX, FRRG-DOX (SEQ ID NO: 7), and the control were compared by measuring the tumor volumes (maximum diameter×minimum diameter 2×0.53) for 15 days. The viabilities and weights of the tumor animal models were measured once a day for 15 days. The accumulations of Free DOX and FRRG-DOX (SEQ ID NO: 7) in the tumor tissues of the tumor animal models were monitored using IVIS Lumina Series III (PerkinElmer, Massachusetts, USA). The fluorescence intensities of Free DOX and FRRG-DOX (SEQ ID NO: 7) in the tumor tissues were quantified using the Living Image software (PerkinElmer, Massachusetts, USA).

Data set [2] in a line: Electrocardiography (ECG) analysis. Particulars: intravenous; 5 mg/kg doxorubicin or 10 mg/kg FRRG-doxorubicin; versus control. The class given is in vivo, ICR mice. How it is done: ECG analysis was performed under the approval of the Institutional Animal Care and Use Committee at the Korea Institute of Toxicology. All procedures were performed according to the National Institutes of Health guidelines for the care and use of laboratory animals. A mixture of isoflourane and oxygen as an anaesthetic gas was injected at a rate of 2 cc/min to ICR mice (25-35 g, Orient Bio Inc., Seoul, Korea). ECG was measured before injection of the anaesthetic gas into an animal bio amp (ADinstruments Pty Ltd, Bella Vista, Australia). The measured ECG was defined as baseline. For 6 h after injection of the anaesthetic gas, ECG was measured. All mice were injected intravenously with saline, 5 mg/kg doxorubicin (in saline) or 10 mg/kg FRRG-doxorubicin (SEQ ID NO: 7) (Example 1) (in saline). The measured ECG data were analyzed using the LabChart 8 software (ADinstruments Pty Ltd, Bella Vista, Australia). Corrected QT (QTc) was calculated using Van de Water's formula 2 and Bazett's formula 3: QTc−V=0.087[(60/HR)−1] (2) QTc−B=QT/(RR)1/2 (3)

The test system of data set [3] is HT29 tumor. The conditions noted are these: for viability (survival rate) of animal tumor models: for 16 days, FIG. 4C; for apoptosis in organ tissues (annexin V staining): heart, spleen, tumor tissues, FIG. 4D. The procedure:
In this example, the in vivo anticancer effects of doxorubicin (Free DOX) and FRRG-DOX (SEQ ID NO: 7) of Example 1 were investigated. First, 1×10^7 HT-29 cells were directly injected into the right flank of each tumor animal model constructed in 1) (n=4 per group). When the tumor size reached ˜200 mm^3, doxorubicin (Free DOX, 5 mg/kg) and FRRG DOX (SEQ ID NO: 7) of Example 1 (5 mg/kg) were administered by tail vein injection once every three days for 15 days.
as §1
Annexin V staining was performed to confirm that apoptosis occurred in tumor tissues excised from the tumor animal models. First, section slides (10 μm) of the excised tumor tissues were washed three times with DPBS, incubated with annexin V solution (200 μl of a binding buffer containing 5 μl of annexin V-Cy5.5) at 37° C. for 20 min, incubated with DAPI at room temperature for 15 min, placed on cover glass, and observed under a confocal laser microscope.

A further data set has as its system hiPSC-CMs. Kind of data set: Multi-electrode array (MEA) analysis. Particulars: FRRG-DOX 0.2 μM; doxorubicin 0.1 μM; compared to the baseline. The data set is classed as cell-based, human. The procedure: Multi-electrode array analysis was conducted by the following procedure. First, human induced pluripotent stem cell-derived cardiomyocytes (hiPSC-CMs, Cellular Dynamics International [CDI], Madison, Wis., USA) were thawed in a 100 mm culture dish. After 1 week, the thawed hiPSC-CMs were plated in an MEA plate coated with fibronectin solution (50 μg/ml). On day 2 after thawing, the plating medium was replaced with a maintenance medium (CDI). Maintenance media were replaced with new ones every 2-3 days. Only 50% of the culture media were replaced with new ones. 2 weeks after plating in the plate, field potentials of spontaneously beating cardiomyocytes were recorded using a Maestro system (Axion Biosystems Inc., Atlanta, Ga., USA). The waveforms of the extracellular field potentials were recorded 10 min after the equilibration period. Inter-spike interval and extracellular field potential duration (FPD) were analyzed and quantified. To minimize the influence of the beat rate on FPD, corrected FPD (FPDcF) was calculated using Fridericia's formula 1: FPDcF=FPD/[inter−spike interval]1/3 (1)

Data set [4] can be described thus: Heart damage markers in blood samples. Particulars: versus control (saline), FIG. 4E.
Data set [5] in a line: Nanoparticle size by dynamic light scattering. The data set is classed as physicochemical. Particulars: FIG. 5B. The procedure: The size distribution was measured using Zetasizer Nano ZS (Malvern Instruments, Worcestershire, U.K).
The next data set relates to cells. Kind of data set: Cellular and nuclear uptake of drug conjugates of Examples 2-4, confocal microscopy. The data set is classed as cell-based. Particulars: for absorption into cells / antitumor effects or intracellular uptake effects: FIGS. 5C and 5D. The text has this: In FIG. 5D, “Cytosol “and “Nucleus” indicate the fluorescence intensities of DOX measured in cytosol and cell nuclei, respectively.

A short description of data set [6]: Non-enzymatic hydrolysis in PBS buffer only, HPLC. The data set is classed as physicochemical. Particulars: 37° C., 9 h. How it is done: The drug conjugate of Example 1 was allowed to react with other enzymes (10 μg/ml cathepsins D, E, and L) and PBS buffer only (in this case, a non-enzymatic hydrolysis product was obtained) and the reaction products were analyzed by HPLC at 37° C. for 9 h.

For data set [7] the following is noted: rat, in vivo.
Data set [8] deals with H9C2 cells (normal cells). The data set is classed as cell-based, Rattus. The procedure: (§2) First, HT-29 cells were plated in a 96-well plate at a density of 1×10^4 cells/well. […] Then, […] of CCK solution was added to each well. After further culture for 30 min, the absorbance of each 96-well plate at 450 nm was analyzed using a microplate reader (VERSAmax™, Molecular Devices Corp., Sunnyvale, Calif.). For comparison, the cell viabilities (%) of H9C2 cells (normal cells) were measured in the same manner as described above.

Another data set relates to HT-29 cells. As to the kind of experiment: In vitro cell viability (CCK). The data set is classed as cell-based, human. Particulars: HT29, FIG. 5E. The procedure: as §2
[9] abbreviates: intravenous, DAPI-stained tissue sections, FIG. 3G.
Where [10] appears, read: 5 mg/kg tail vein once every three days for 15 days.

“Also recorded” adds a separate entry of the source. Read-outs that look alike come from different tables or passages of the source. Residues, ends and D or L forms follow the SMILES beside them. No end group written: not given here. *: point of attachment. Doxorubicin(3'-N) = COc1cccc2c1C(=O)c1c(O)c3c(c(O)c1C2=O)C[C@@](O)(C(=O)CO)C[C@@H]3O[C@H]1C[C@H](N*)[C@H](O)[C@H](C)O1

In the case of `COc1cccc2c1C(=O)c1c(O)c3c(c(O)c1C2=O)C[C@@](O)(C(=O)CO)C[C@@H]3O[C@H]1C[C@H](N)[C@H](O)[C@H](C)O1` [doxorubicin], the “doxorubicin accumulation in tumor tissues” value (“doxorubicin accumulation” for short) in the data set with HT29 tumor [1] (setting [9]) is on record as “could not be effectively accumulated in tissues”. In addition, the QTc values result in [2] is reported as “extended compared to those measured in the control”. In addition, the “weight of the tumor animal models” value with HT29 tumor [3] (5 mg/kg tail vein once every three days) is “began to decrease”. Besides, in the data set on HT29 tumor [3] (setting [10]), the “inhibition of tumor growth (tumor volume)” value is recorded as “significantly inhibit tumor growth” and the “toxicity to normal cells in tumor animal models” value is on record as “Toxicity to normal cells was observed”. For the same compound, in the data set on HT29 tumor [3], the “viability (survival rate) of animal tumor models” value is “mortality began to increase rapidly”; the “apoptosis in organ tissues (annexin V staining)” value was “apoptosis was observed in all of the heart, spleen, and tumor tissues”. For the same compound, in the data set on hiPSC-CMs, the FPD entry is “significantly low compared to the baseline” and the FPDcF result is recorded as “significantly low compared to the baseline”. Also, the “levels of markers indicative of heart damage (hs troponin-T, Troponin-I, CK-MM, CPK total)” value in data set [4] is listed as “higher levels of all markers”.

Regarding FRRGGGGG-DOX (FRRGGGGG-doxorubicin), the “measured sizes of the nanoparticles” value in data set [5] is on record as 300-700 nm. In the data set on cells, the absorption into cells entry was “not readily absorbed into cells” and the “antitumor effects or intracellular uptake effects” value was “showed antitumor effects or intracellular uptake effects”.

Take GGFRRGGG-DOX (GGFRRGGG-doxorubicin): in data set [5], the “measured sizes of the nanoparticles” value is given as 50-200 nm. Further, in the data set on cells (FIG. 5D), the “uptake into cell nuclei relative to drug conjugates of Examples 1 and 2” value is recorded as 10 times lower. For the same compound, in the data set on cells, the absorption into cells result is on record as “readily absorbed into cells” and the “antitumor effects or intracellular uptake effects” value is “showed antitumor effects or intracellular uptake effects”.

In the case of `COc1cccc2c1C(=O)c1c(O)c3c(c(O)c1C2=O)C[C@@](O)(C(=O)CO)C[C@@H]3O[C@H]1C[C@H](NC(=O)CNC(=O)[C@H](CCCNC(=N)N)NC(=O)[C@H](CCCNC(=N)N)NC(=O)[C@H](Cc2ccccc2)NC(C)=O)[C@H](O)[C@H](C)O1` [FRRG-DOX] (Ac-FRRG-{Doxorubicin(3'-N)}), the “doxorubicin accumulation” value with HT29 tumor [1] (mouse, in vivo, iv) is recorded as “doxorubicin was accumulated in the tumor tissues”. In addition, the “stability in phosphate buffered saline” value in [6] was “very stable in phosphate buffered saline”. Also, the “toxicity to normal cells in tumor animal models” value in the data set with HT29 tumor [3] (setting [10]) is “no toxicity was observed”. In the data set on HT29 tumor [3], the “viability (survival rate) of animal tumor models” value was found to be 100% and the “apoptosis in organ tissues (annexin V staining)” value is listed as “apoptosis was observed only in the tumor tissues”. For the same compound, in the data set with hiPSC-CMs, the FPD result was “remained substantially unchanged” and the FPDcF result is “remained substantially unchanged”. In [7], the “levels of markers indicative of heart damage (hs troponin-T, Troponin-I, CK-MM, CPK total)” value is listed as “about two times lower than or comparable to those in the control”. Further, the “cell viability compared with group treated with doxorubicin alone (Free DOX)” value in data set [8] is given as “significant difference in cell viability”.

For the compound `COc1cccc2c1C(=O)c1c(O)c3c(c(O)c1C2=O)C[C@@](O)(C(=O)CO)C[C@@H]3O[C@H]1C[C@H](NC(=O)CNC(=O)[C@H](CCCNC(=N)N)NC(=O)[C@H](CCCNC(=N)N)NC(C)=O)[C@H](O)[C@H](C)O1` [RRG-DOX], the “fluorescence intensity of doxorubicin in excised tumor tissues” value in the data set with HT29 tumor [1] (5 mg/kg intravenous, FIG. 3E/3F) is “low fluorescence intensity”. Also, the “doxorubicin accumulation” value in the data set with HT29 tumor [1] (setting [9]) is “could not be effectively accumulated in tissues”.

Consider GGGGFRRG-DOX (GGGGFRRG-doxorubicin), for which, in data set [5], the “measured sizes of the nanoparticles” value is given as 200-600 nm. Also, the “antitumor effect (cell viability of HT29)” value with HT-29 cells is recorded as “same antitumor effect as DOX; also recorded: most effective in antitumor action”. In the data set on cells, the “antitumor effects or intracellular uptake effects” value was “showed antitumor effects or intracellular uptake effects”.

These data come from patent US10610602B2, “Tumor cell-specific responsive self-assembling drug nanoconjugate” (KOREA INSTITUTE OF SCIENCE AND TECHNOLOGY, priority 2017, dated 2020).
